In ChEMBL document CHEMBL1201862, “PubChem BioAssay data set” (2004):
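Growth conditions: 96-well plates. Treatment: test compound, 48 hours, 5 concentrations. Analysis: linear interpolation between bracketing concentrations; unreached endpoints set to highest concentration. Abbreviation: GI50, concentration required for 50% inhibition of growth.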 Calls of active or inactive are those of the source. Rule as the data show it: active = GI50 up to about 1.1 µM and inactive = higher.

Experiments:
Test in all cases: NCI-60 cell line screen, 48 h
SF-295 = test system: SF-295
SF-268 = test system: SF-268
EKVX = test system: EKVX
SNB-19 = test system: SNB-19
OVCAR-5 = test system: OVCAR-5
HCT-116 = test system: HCT-116
SNB-75 = test system: SNB-75
HCT-15 = test system: HCT-15
LOX IMVI = test system: LOX IMVI
M14 = test system: M14
COLO 205 = test system: COLO 205
HOP-92 = test system: HOP-92
NCI-H460 = test system: NCI-H460
KM12 = test system: KM12
SK-MEL-28 = test system: SK-MEL-28
TK-10 = test system: TK-10

For O=c1cccccc1NCCCCCCCCCNc1cccccc1=O, the GI50 (SF-295) was 9.64 µM (inactive), the GI50 (SF-268) was 14.1 µM (inactive) and the GI50 (EKVX) was 4.56 µM (inactive). For the same compound, the GI50 (SNB-19) was 11.5 µM (inactive), the GI50 (OVCAR-5) was 17.5 µM (inactive) and the GI50 (HCT-116) was 2.74 µM (inactive). For the same compound, the GI50 (SNB-75) was 17.9 µM (inactive), the GI50 (HCT-15) was 12.2 µM and the GI50 (LOX IMVI) was 5.9 µM (inactive). The GI50 (M14) was 10.9 µM (inactive), the GI50 (COLO 205) was 3.23 µM (inactive) and the GI50 (HOP-92) was 18.7 µM (inactive). The GI50 (NCI-H460) was 9.51 µM (inactive) and the GI50 (KM12) was 16.1 µM (inactive).
With COCCN1C2=CCCCC2=Nc2c1nc(N)[nH]c2=O the GI50 (SK-MEL-28) was > 100 µM (inactive), the GI50 (SF-295) was > 100 µM (inactive) and the GI50 (SF-268) was > 100 µM (inactive). For the same compound, the GI50 (EKVX) was > 100 µM (inactive), the GI50 (SNB-19) was > 100 µM (inactive) and the GI50 (OVCAR-5) was > 100 µM (inactive). The GI50 (HCT-116) was > 100 µM (inactive), the GI50 (SNB-75) was > 100 µM (inactive) and the GI50 (HCT-15) was greater than 100 µM. The GI50 (LOX IMVI) was > 100 µM (inactive), the GI50 (M14) was > 100 µM (inactive) and the GI50 (COLO 205) was > 100 µM (inactive). For the same compound, the GI50 (HOP-92) was > 100 µM (inactive), the GI50 (NCI-H460) was > 100 µM (inactive) and the GI50 (TK-10) was > 100 µM (inactive). For the same compound, the GI50 (KM12) was > 100 µM (inactive).
With O=C(/C=C/c1ccccc1)CC1OC(=O)c2ccccc21 (stereo not drawn) the GI50 (SK-MEL-28) was > 100 µM (inactive), the GI50 (SF-295) was 85.5 µM (inactive) and the GI50 (SF-268) was > 100 µM (inactive). For the same compound, the GI50 (EKVX) was > 100 µM (inactive), the GI50 (SNB-19) was 42.1 µM (inactive) and the GI50 (OVCAR-5) was > 100 µM (inactive). The GI50 (HCT-116) was 31.2 µM (inactive), the GI50 (SNB-75) was 45.5 µM (inactive) and the GI50 (HCT-15) was greater than 100 µM. For the same compound, the GI50 (LOX IMVI) was 49.7 µM (inactive), the GI50 (M14) was > 100 µM (inactive) and the GI50 (COLO 205) was > 100 µM (inactive). The GI50 (HOP-92) was 48.8 µM (inactive), the GI50 (NCI-H460) was > 100 µM (inactive) and the GI50 (TK-10) was > 100 µM (inactive). For the same compound, the GI50 (KM12) was 40.5 µM (inactive).
CCC(C)(C)C(=O)O[C@H]1C[C@@H](C)C=C2C=C[C@H](C)[C@H](CC[C@@H]3C[C@@H](O)CC(=O)O3)[C@H]21 [SIMVASTATIN] was tested, and the GI50 (SK-MEL-28) was > 30 µM (inactive), the GI50 (SF-295) was 1.13 µM (inactive) and the GI50 (EKVX) was 0.948 µM (active). For the same compound, the GI50 (HCT-116) was 3.27 µM (inactive), the GI50 (SNB-75) was 0.658 µM (active) and the GI50 (HCT-15) was 1.12 µM. For the same compound, the GI50 (M14) was 2.25 µM (inactive), the GI50 (COLO 205) was 12.1 µM (inactive) and the GI50 (HOP-92) was < 0.003 µM (active). The GI50 (NCI-H460) was 9.08 µM (inactive) and the GI50 (KM12) was 8.45 µM (inactive).
With CC1=C(C(=O)O)N2C(=O)[C@@H](NC(=O)C(c3ccccc3)N3CSC(=S)N(C(C)C)C3)C2SC1 (stereo partly drawn) the GI50 (SK-MEL-28) was 59 µM (inactive), the GI50 (SF-295) was > 100 µM (inactive) and the GI50 (EKVX) was > 100 µM (inactive). For the same compound, the GI50 (SNB-19) was > 100 µM (inactive), the GI50 (OVCAR-5) was > 100 µM (inactive) and the GI50 (HCT-116) was > 100 µM (inactive). The GI50 (SNB-75) was > 100 µM (inactive), the GI50 (HCT-15) was greater than 100 µM and the GI50 (LOX IMVI) was > 100 µM (inactive). The GI50 (M14) was > 100 µM (inactive), the GI50 (COLO 205) was 86.3 µM (inactive) and the GI50 (HOP-92) was > 100 µM (inactive). The GI50 (NCI-H460) was > 100 µM (inactive), the GI50 (TK-10) was > 100 µM (inactive) and the GI50 (KM12) was > 100 µM (inactive).
COc1cc(-c2c(C)c(C)nc(OC)c2C#N)cc(OC)c1OC was tested, and the GI50 (SK-MEL-28) was > 100 µM (inactive), the GI50 (SF-295) was 53.6 µM (inactive) and the GI50 (SF-268) was > 100 µM (inactive). For the same compound, the GI50 (EKVX) was > 100 µM (inactive), the GI50 (SNB-19) was > 100 µM (inactive) and the GI50 (HCT-116) was > 100 µM (inactive). The GI50 (SNB-75) was 44.2 µM (inactive), the GI50 (HCT-15) was greater than 100 µM and the GI50 (M14) was > 100 µM (inactive). The GI50 (COLO 205) was > 100 µM (inactive), the GI50 (HOP-92) was 21.3 µM (inactive) and the GI50 (NCI-H460) was > 100 µM (inactive). For the same compound, the GI50 (TK-10) was > 100 µM (inactive) and the GI50 (KM12) was > 100 µM (inactive).
For CCCC1N2CCCCC2[C@@H]2c3[nH]c4ccccc4c3CCN12 (stereo partly drawn), the GI50 (SK-MEL-28) was > 100 µM (inactive), the GI50 (SF-295) was > 100 µM (inactive) and the GI50 (SF-268) was > 100 µM (inactive). For the same compound, the GI50 (EKVX) was > 100 µM (inactive), the GI50 (SNB-19) was > 100 µM (inactive) and the GI50 (OVCAR-5) was > 100 µM (inactive). For the same compound, the GI50 (HCT-116) was > 100 µM (inactive), the GI50 (SNB-75) was 32.3 µM (inactive) and the GI50 (HCT-15) was greater than 100 µM. The GI50 (M14) was > 100 µM (inactive), the GI50 (COLO 205) was > 100 µM (inactive) and the GI50 (HOP-92) was > 100 µM (inactive). For the same compound, the GI50 (NCI-H460) was > 100 µM (inactive).
Cc1cc(C)nc(NS(=O)(=O)c2ccc(Nc3c4ccccc4nc4c(C(=O)Nc5ccc(S(=O)(=O)N=C(N)N)cc5)cccc34)cc2)n1 was tested, and the GI50 (SK-MEL-28) was 67.3 µM (inactive), the GI50 (SF-268) was > 100 µM (inactive) and the GI50 (EKVX) was > 100 µM (inactive). The GI50 (SNB-19) was 35.7 µM (inactive), the GI50 (OVCAR-5) was 51.8 µM (inactive) and the GI50 (SNB-75) was 27.2 µM (inactive). The GI50 (HCT-15) was greater than 100 µM, the GI50 (LOX IMVI) was > 100 µM (inactive) and the GI50 (M14) was 90.4 µM (inactive). For the same compound, the GI50 (COLO 205) was > 100 µM (inactive), the GI50 (HOP-92) was 37.5 µM (inactive) and the GI50 (NCI-H460) was > 100 µM (inactive). For the same compound, the GI50 (TK-10) was > 100 µM (inactive) and the GI50 (KM12) was > 100 µM (inactive).
With O=C(CCC(=O)Nc1ccc(Cl)cc1)CC(=O)c1ccc(F)cc1 the GI50 (SK-MEL-28) was > 100 µM (inactive), the GI50 (SF-295) was > 100 µM (inactive) and the GI50 (SF-268) was > 100 µM (inactive). For the same compound, the GI50 (SNB-19) was > 100 µM (inactive), the GI50 (OVCAR-5) was > 100 µM (inactive) and the GI50 (HCT-116) was > 100 µM (inactive). For the same compound, the GI50 (SNB-75) was > 100 µM (inactive), the GI50 (HCT-15) was greater than 100 µM and the GI50 (LOX IMVI) was > 100 µM (inactive). The GI50 (M14) was > 100 µM (inactive), the GI50 (COLO 205) was > 100 µM (inactive) and the GI50 (HOP-92) was > 100 µM (inactive). The GI50 (NCI-H460) was > 100 µM (inactive), the GI50 (TK-10) was > 100 µM (inactive) and the GI50 (KM12) was > 100 µM (inactive).
